Results on 41 molecules are retold here after patent US12065421B2, “Inhibitors of oplophorus luciferase-derived bioluminescent complexes” (priority 2018, dated 2024).

As usually defined, the pIC50 is −log10 of the IC50, conventionally taken in molar units. The low end stands for a large IC50, the high end for a small IC50.

pIC50: −log10 of the molar value.

The target in the test is T1, NanoBiT® HiBiT non-luminescent peptide and LgBiT non-luminescent polypeptide (HiBiT/LgBiT bioluminescent complex) (Oplophorus gracilirostris, UniProt Q9GV45, A31E/A60N/A81I/C191F/D135N/E192K/F58L/F95D/G184S/G42A/G62A/G78A/G94A/G98A/H120P/I103V/I117V/I134L/K70R/L176M/L195S/L54V/L73R/L99Q/M102E/N171T/N193K/P142E/Q151K/Q38E/Q45L/T186S/V71I/Y165I).
T1 construct: fused on or other part: N-terminal Met-Val on LgBiT in place of the signal peptide (residues 1-27); The chain is split between residues 184 and 185 into LgBiT and the 11-residue HiBiT peptide (residues 185-195); C-terminal A196 is absent
T1 sequence (Q9GV45 other isoform, or with tags, fused parts or gaps with the stated changes): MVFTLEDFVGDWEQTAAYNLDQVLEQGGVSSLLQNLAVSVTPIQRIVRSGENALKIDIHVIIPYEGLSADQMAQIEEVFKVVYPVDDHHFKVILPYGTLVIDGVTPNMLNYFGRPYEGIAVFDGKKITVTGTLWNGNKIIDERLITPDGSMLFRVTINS
Nature of the test: biochemical.
In the case of `Cc1ccc(S(=O)(=O)Nc2ccccc2C(=O)Nc2cc3ccccc3s2)cc1` [HL-0005, N-(benzo[b]thiophen-2-yl)-2-((4-methylphenyl)sulfonamido)benzamide], the negative-log IC50 (pIC50) is 8.41.
`Cc1ccc(S(=O)(=O)Nc2ccccc2C(=O)NC2CCCCC2)cc1` [HL-0006, N-cyclohexyl-2-((4-methylphenyl)sulfonamido)benzamide] showed a negative-log IC50 (pIC50) of 6.68.
The result for `Cc1ccc(S(=O)(=O)Nc2ccccc2C(=O)Nc2ccc3ccccc3c2)cc1` [HL-0007, 2-((4-methylphenyl)sulfonamido)-N-(naphthalen-2-yl)benzamide] reads 7.85.
With `Cc1ccc(S(=O)(=O)Nc2ccccc2C(=O)Nc2ccc3c(c2)CCCC3)cc1` [HL-0008, 2-((4-methylphenyl)sulfonamido)-N-(5,6,7,8-tetrahydronaphthalen-2-yl)benzamide] the figure was 7.62; with `COC(=O)[C@H]1CC[C@H](NC(=O)c2ccccc2NS(=O)(=O)c2ccc(C)cc2)CC1` [HL-0009, methyl trans-4-(2-((4-methylphenyl)sulfonamido)benzamido)cyclohexane-1-carboxylate], 4.80.
For the molecule `N#Cc1c(NC(=O)c2ccccc2NS(=O)(=O)c2ccccc2)sc2c1CCC2` [HL-0010, N-(3-cyano-5,6-dihydro-4H-cyclopenta[b]thiophen-2-yl)-2-(phenylsulfonamido)benzamide], the negative logarithm of the IC50 (pIC50) was 7.66.
Molecule `Cc1ccc(S(=O)(=O)Nc2ccccc2C(=O)N[C@H]2CC[C@H](C(=O)O)CC2)cc1` [HL-0012, trans-4-(2-((4-methylphenyl)sulfonamido)benzamido)cyclohexane-1-carboxylic acid] gave a pIC50 of 6.31.
The result for `Cc1ccc(NC(=O)c2ccccc2NS(=O)(=O)c2ccc(C)cc2)cc1` [HL-0019, 2-((4-methylphenyl)sulfonamido)-N-(p-tolyl)benzamide] reads 7.54.
The result for `CCOC(=O)Cc1ccc(NC(=O)c2ccccc2NS(=O)(=O)c2ccc(C)cc2)cc1` [HL-0023, ethyl 2-(4-(2-((4-methylphenyl)sulfonamido)benzamido)phenyl)acetate] reads 6.24.
With `Cc1ccc(S(=O)(=O)Nc2ccccc2C(=O)Nc2cccc(C(C)C)c2)cc1` [HL-0025, N-(3-isopropylphenyl)-2-((4-methylphenyl)sulfonamido)benzamide] the figure was 7.07; with `CCOC(=O)c1cccc(NC(=O)c2ccccc2NS(=O)(=O)c2ccc(C)cc2)c1` [HL-0026, ethyl 3-(2-((4-methylphenyl)sulfonamido)benzamido)benzoate], 6.62.
Take `O=Cc1ccc(S(=O)(=O)Nc2ccccc2C(=O)Nc2cc3ccccc3s2)cc1` [HL-0038, N-(benzo[b]thiophen-2-yl)-2-((4-formylphenyl)sulfonamido)benzamide]: the negative-log IC50 (pIC50) is 7.36.
Regarding `COC(=O)CCc1ccc(S(=O)(=O)Nc2ccccc2C(=O)Nc2cc3ccccc3s2)cc1` [HL-0040, methyl 3-(4-(N-(2-(benzo[b]thiophen-2-ylcarbamoyl)phenyl)sulfamoyl)phenyl)propanoate], the pIC50 was 6.37. Against the preceding molecule, the pIC50 is 0.99 log units lower.
With `Cc1cccc(S(=O)(=O)Nc2ccccc2C(=O)Nc2cc3ccccc3s2)c1` [HL-0041, N-(benzo[b]thiophen-2-yl)-2-((3-methylphenyl)sulfonamido)benzamide] the figure was 7.89; with `Cc1ccc(S(=O)(=O)Nc2ccccc2C(=O)Nc2cccc(C)c2)cc1` [HL-0044, 2-((4-methylphenyl)sulfonamido)-N-(m-tolyl)benzamide], 7.06; with `Cc1ccc(S(=O)(=O)Nc2cc3ccccc3cc2C(=O)Nc2cc3ccccc3s2)cc1` [HL-0057, N-(benzo[b]thiophen-2-yl)-3-((4-methylphenyl)sulfonamido)-2-naphthamide], 7.26.
The molecule `CCCc1ccccc1NC(=O)c1ccccc1NS(=O)(=O)c1ccc(C)cc1` [HL-0059, 2-((4-methylphenyl)sulfonamido)-N-(2-propylphenyl)benzamide] showed a pIC50 of 6.72.
With `Cc1ccc(S(=O)(=O)Nc2ccc(C)cc2C(=O)Nc2cc3ccccc3s2)cc1` [HL-0061, N-(benzo[b]thiophen-2-yl)-5-methyl-2-((4-methylphenyl)sulfonamido)benzamide] the figure was 7.54; with `O=C(Nc1cc2ccccc2s1)c1ccccc1NS(=O)(=O)c1ccc(CCCO)cc1` [HL-0062, N-(benzo[b]thiophen-2-yl)-2-((4-(3-hydroxypropyl)phenyl)sulfonamido)benzamide], 5.92; with `CCCCc1cccc(NC(=O)c2ccccc2NS(=O)(=O)c2ccc(C)cc2)c1` [HL-0070, N-(3-butylphenyl)-2-((4-methylphenyl)sulfonamido)benzamide], 6.89.
The result for `Cc1ccc(S(=O)(=O)Nc2ccc(C#N)cc2C(=O)Nc2cc3ccccc3s2)cc1` [HL-0071, N-(benzo[b]thiophen-2-yl)-5-cyano-2-((4-methylphenyl)sulfonamido)benzamide] reads 7.37; that for `Cc1ccc(S(=O)(=O)Nc2ccccc2C(=O)Nc2sc3c(c2C#N)CCC3)cc1` [JRW-0998, N-(3-cyano-5,6-dihydro-4H-cyclopenta[b]thiophen-2-yl)-2-((4-methylphenyl)sulfonamido)benzamide], 7.37.
With `Cc1ccc(S(=O)(=O)Nc2ccccc2C(=O)Nc2sc3c(c2C#N)CCCC3)cc1` [JRW-1004, N-(3-cyano-4,5,6,7-tetrahydrobenzo[b]thiophen-2-yl)-2-((4-methylphenyl)sulfonamido)benzamide] the figure was 7.52; with `Cc1ccc(S(=O)(=O)Nc2ccccc2C(=O)Nc2sccc2C#N)cc1` [JRW-1006, N-(3-cyanothiophen-2-yl)-2-((4-methylphenyl)sulfonamido)benzamide], 6.00; with `Cc1ccc(S(=O)(=O)Nc2ccccc2C(=O)Nc2ccccc2C#N)cc1` [JRW-1008, N-(2-cyanophenyl)-2-((4-methylphenyl)sulfonamido)benzamide], 6.62.
Regarding `Cc1ccc(S(=O)(=O)Nc2ccccc2C(=O)Nc2ccccc2)cc1` [JRW-1011, 2-((4-methylphenyl)sulfonamido)-N-phenylbenzamide], the pIC50 is 7.03.
On to `CCCCc1ccc(NC(=O)c2ccccc2NS(=O)(=O)c2ccc(C)cc2)cc1` [JRW-1076, N-(4-butylphenyl)-2-((4-methylphenyl)sulfonamido)benzamide], for which the pIC50 is 7.59.
In turn, `O=C(Nc1cc2ccccc2s1)c1ccccc1NS(=O)(=O)c1ccc2c(c1)CCCC2` [JRW-1077, N-(benzo[b]thiophen-2-yl)-2-((5,6,7,8-tetrahydronaphthalene)-2-sulfonamido)benzamide] showed a pIC50 of 7.05.
With `CCCCCCc1ccc(NC(=O)c2ccccc2NS(=O)(=O)c2ccc(C)cc2)cc1` [JRW-1090, N-(4-hexylphenyl)-2-((4-methylphenyl)sulfonamido)benzamide] the figure was 5.96.
Molecule `CCCCc1ccc(S(=O)(=O)Nc2ccccc2C(=O)Nc2cc3ccccc3s2)cc1` [JRW-1114, N-(benzo[b]thiophen-2-yl)-2-((4-butylphenyl)sulfonamido)benzamide] had a negative-log IC50 (pIC50) of 6.77.
With `CCCCc1ccc(NS(=O)(=O)c2ccc(C)cc2)c(C(=O)Nc2cc3ccccc3s2)c1` [JRW-1146, N-(benzo[b]thiophen-2-yl)-5-butyl-2-((4-methylphenyl)sulfonamido)benzamide] the figure was 6.20; with `Cc1ccc(S(=O)(=O)Nc2ccccc2C(=O)Nc2ccc(CCCCO)cc2)cc1` [JRW-1150, N-(4-(4-hydroxybutyl)phenyl)-2-((4-methylphenyl)sulfonamido)benzamide], 4.72.
The result for `Cc1ccc(S(=O)(=O)Nc2ccccc2C(=O)Nc2ccc(CCCCBr)cc2)cc1` [JRW-1152, N-(4-(4-bromobutyl)phenyl)-2-((4-methylphenyl)sulfonamido)benzamide] reads 6.92; that for `COc1ccc(NS(=O)(=O)c2ccc(C)cc2)c(C(=O)Nc2ccc(C)cc2)c1` [JRW-1166, 5-methoxy-2-((4-methylphenyl)sulfonamido)-N-(p-tolyl)benzamide], 6.89; that for `COc1ccc(NS(=O)(=O)c2ccc(C)cc2)c(C(=O)Nc2cc3ccccc3s2)c1` [JRW-1167, N-(benzo[b]thiophen-2-yl)-5-methoxy-2-((4-methylphenyl)sulfonamido)benzamide], 7.70.
Turning to `COc1ccc(C(=O)Nc2ccc(C)cc2)c(NS(=O)(=O)c2ccc(C)cc2)c1` [JRW-1202, 4-methoxy-2-((4-methylphenyl)sulfonamido)-N-(p-tolyl)benzamide], the pIC50 is 6.74.
The result for `COc1ccc(C(=O)Nc2cc3ccccc3s2)c(NS(=O)(=O)c2ccc(C)cc2)c1` [JRW-1203, N-(benzo[b]thiophen-2-yl)-4-methoxy-2-((4-methylphenyl)sulfonamido)benzamide] reads 7.00.
Turning to `COc1cccc(S(=O)(=O)Nc2ccccc2C(=O)Nc2ccc(C)cc2)c1` [JRW-1205, 2-((3-methoxyphenyl)sulfonamido)-N-(p-tolyl)benzamide], the pIC50 was 7.54.
The result for `COc1cccc(S(=O)(=O)Nc2ccccc2C(=O)Nc2cc3ccccc3s2)c1` [JRW-1230, N-(benzo[b]thiophen-2-yl)-2-((3-methoxyphenyl)sulfonamido)benzamide] reads 8.11; that for `Cc1ccc(NC(=O)c2cc(O)ccc2NS(=O)(=O)c2ccc(C)cc2)cc1` [JRW-1232, 5-hydroxy-2-((4-methylphenyl)sulfonamido)-N-(p-tolyl)benzamide], 6.00.
With `Cc1ccc(NC(=O)c2ccccc2NS(=O)(=O)c2cccc(O)c2)cc1` [JRW-1236, 2-((3-hydroxyphenyl)sulfonamido)-N-(p-tolyl)benzamide] the figure was 7.48.
